Results on 14 molecules are retold here after patent US20230219965A1 (KSQ Therapeutics, Inc., priority 2020, published 2023).

pIC50: −log10 of the molar value. Like-named read-outs stand apart in the source and are kept apart here.

Series [1] in a line: ADME solubility determination in PBS at pH 2.0 and pH 7.4. The format is physicochemical. As to conditions: phosphate buffered saline, 25 °C, thermodynamic from solid. The gist of the method:
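Solubility was read by LC-MS/MS on centrifuged supernatants, calibrated to a known-concentration standard and corrected for dilution. Compound, dried down from 10 mM DMSO stock, was equilibrated 24 h at 25° C with shaking in PBS at pH 2.0 or pH 7.4.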

Series [2] in a line: Liver microsomal metabolic stability, human liver microsomes (HLM). The following applies: human, liver microsomes. (Liver microsomes are vesicles of endoplasmic reticulum, rich in cytochrome P450 enzymes.)
The subject of series [3] is Ub-PCNA levels in the nucleus of ES2 cells (USP1 activity). Description: ES2 Ub-PCNA immunofluorescence (IF) assay. The format is cell-based. The following applies: Homo sapiens, ES-2; ES2 cells, 3 hours, Ub-PCNA immunofluorescence; read-out: USP1 IC50 (Ub-PCNA). The gist of the method:
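AC50 derived from percent Ub-PCNA-positive nuclei, positivity set by a 95% cutoff from untreated-well intensities. Readout by imaging immunofluorescence (anti-Ub-PCNA, DAPI nuclear mask) after methanol fixation. Compound exposure: 3 h at 37° C, 0.3% DMSO final, on cells plated overnight.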

The next series addresses USP1/UAF1 enzyme (Homo sapiens, UniProt O94782). The series can be described thus: USP1/UAF1 deubiquitination assay (ubiquitin-rhodamine 110 substrate). The format is biochemical. As to conditions: read-out: USP1 IC50 (Ub-Rho). The gist of the method:
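Cleavage of 150 nM ubiquitin-rhodamine 110 by 0.05 nM USP1/UAF1 was followed as fluorescence (Ex480/Em540, kinetic, 30 min) in Tris-HCl pH 7.8 buffer with EDTA, BSA, DTT and Tween-20. Compounds, top 10 μM, were preincubated with enzyme 10 min; % inhibition against no-enzyme and DMSO wells gave four-parameter IC50s.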

A short description of series [4]: Liver microsomal metabolic stability, rat liver microsomes (RLM). As to conditions: rat, liver microsomes, t1/2 (min) in RLM, 1 μM compound, 1 mg/mL microsomes, NADPH.
Where [5] appears, read: pH 2, aqueous buffer, PBS pH 2.0, 25° C., read-out: Solubility at pH 2.0.
[6] abbreviates: pH 7.4, aqueous buffer, PBS pH 7.4, 25° C., read-out: Solubility at pH 7.4.

Sequence of USP1/UAF1 enzyme (O94782 whole entry): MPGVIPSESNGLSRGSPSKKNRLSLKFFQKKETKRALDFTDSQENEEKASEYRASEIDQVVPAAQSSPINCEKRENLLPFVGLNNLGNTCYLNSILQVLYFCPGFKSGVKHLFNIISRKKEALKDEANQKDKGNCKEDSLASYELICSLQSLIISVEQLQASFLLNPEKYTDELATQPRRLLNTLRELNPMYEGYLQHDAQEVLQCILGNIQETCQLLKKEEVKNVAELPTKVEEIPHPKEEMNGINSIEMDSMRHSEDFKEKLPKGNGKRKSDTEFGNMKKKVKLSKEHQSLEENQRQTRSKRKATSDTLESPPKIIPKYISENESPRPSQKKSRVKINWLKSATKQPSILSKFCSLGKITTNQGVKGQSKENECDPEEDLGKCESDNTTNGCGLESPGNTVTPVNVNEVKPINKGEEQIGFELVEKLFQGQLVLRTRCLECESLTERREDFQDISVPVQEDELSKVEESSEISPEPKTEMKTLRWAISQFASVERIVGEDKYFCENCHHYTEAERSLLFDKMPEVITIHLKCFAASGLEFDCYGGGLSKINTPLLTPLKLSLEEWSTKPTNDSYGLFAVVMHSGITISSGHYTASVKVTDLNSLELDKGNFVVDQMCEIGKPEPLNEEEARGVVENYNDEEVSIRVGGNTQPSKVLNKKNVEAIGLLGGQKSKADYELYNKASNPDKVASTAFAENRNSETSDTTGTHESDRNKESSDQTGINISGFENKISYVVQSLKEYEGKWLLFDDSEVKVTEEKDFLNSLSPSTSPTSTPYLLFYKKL
Sequence of USP1/UAF1 enzyme (Q8TAF3 whole entry partner): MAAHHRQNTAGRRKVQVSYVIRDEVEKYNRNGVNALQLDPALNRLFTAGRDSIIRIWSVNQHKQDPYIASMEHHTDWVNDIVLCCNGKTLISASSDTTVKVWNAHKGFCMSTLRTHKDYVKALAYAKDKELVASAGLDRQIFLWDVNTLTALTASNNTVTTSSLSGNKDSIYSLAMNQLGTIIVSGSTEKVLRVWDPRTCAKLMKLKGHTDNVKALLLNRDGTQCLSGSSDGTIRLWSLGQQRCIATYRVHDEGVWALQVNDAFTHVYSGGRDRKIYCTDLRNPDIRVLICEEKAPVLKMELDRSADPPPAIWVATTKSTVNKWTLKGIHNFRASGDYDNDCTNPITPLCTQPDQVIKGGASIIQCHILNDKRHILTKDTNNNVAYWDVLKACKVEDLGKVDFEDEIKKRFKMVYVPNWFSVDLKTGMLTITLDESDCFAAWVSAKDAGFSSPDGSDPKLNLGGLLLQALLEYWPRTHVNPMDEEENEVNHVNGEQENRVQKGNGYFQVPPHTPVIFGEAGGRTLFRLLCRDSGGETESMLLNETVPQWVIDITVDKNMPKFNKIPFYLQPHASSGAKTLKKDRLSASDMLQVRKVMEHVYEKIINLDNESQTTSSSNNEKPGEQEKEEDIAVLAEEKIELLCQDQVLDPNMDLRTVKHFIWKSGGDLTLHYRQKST

For `COc1cc(C(F)(F)F)nn1-c1ccc(CN2CCCn3nc(-c4c(C)cnn4C(C)C)cc32)cc1F` [Example 57], the solubility at 24 h in series [1] (setting [5]) and in series [1] (setting [6]) was < 10 µM each time. Besides, the half-life at 1 μM in series [2] and in series [4] was < 25 min each time. The pIC50 (in series [3]; at USP1/UAF1 enzyme) was > 7.00 throughout.
With `CCn1cc(C(F)(F)F)nc1-c1ccc(CN2CC(N)Cn3nc(-c4c(Cl)cnn4C(C)C)cc32)cc1F` (stereo not drawn) [Example 353, 2-(4-chloro-1-isopropyl-1H-pyrazol-5-yl)-4-(4-(1-ethyl-4-(trifluoromethyl)-1H-imidazol-2-yl)-3-fluorobenzyl)-4,5,6,7-tetrahydropyrazolo[1,5-α]pyrimidin-6-amine], the figures for the solubility at 24 h in series [1] (setting [5]) and in series [1] (setting [6]) were ≥ 10 µM and < 10 µM, respectively. Moreover, the half-life at 1 μM in series [2] and in series [4] was < 25 min in each case. The pIC50 (in series [3]; at USP1/UAF1 enzyme) was > 7.00 each time.
Consider `COc1ncnc(C2CC2)c1-c1nc2n(n1)CCC(=O)N2[C@H](C)c1ccc(-c2nc(C(F)(F)F)cn2C2CC2)cc1` [Example 201], for which the solubility at 24 h in series [1] (setting [5]) and in series [1] (setting [6]) was ≥ 10 µM throughout. The half-life at 1 μM in series [2] and in series [4] was > 25 min each time. Moreover, the negative logarithm of the IC50 (pIC50) (in series [3]; on USP1/UAF1 enzyme) was > 7.00 in each case.
On to `CCn1cc(C(F)(F)F)nc1-c1ccc(CC2c3cc(-c4c(OC)ncnc4C4CC4)nn3CCN2C)cc1` (stereo not drawn) [Example 362, 2-(4-cyclopropyl-6-methoxypyrimidin-5-yl)-4-(4-(1-ethyl-4-(trifluoromethyl)-1H-imidazol-2-yl)benzyl)-5-methyl-4,5,6,7-tetrahydropyrazolo[1,5-a]pyrazine], for which the solubility at 24 h in series [1] (setting [5]) and in series [1] (setting [6]) was ≥ 10 µM each time. In addition, the half-life at 1 μM in series [2] and in series [4] was < 25 min each time. For the same molecule, the pIC50 (as a rule, −log10 of the IC50, conventionally taken in molar units) is 6.30 to 7.00 in series [3] and > 7.00 on USP1/UAF1 enzyme.
On to `CCn1cc(C(F)(F)F)nc1-c1ccc([C@@H](C)N2C(=O)CCn3nc(-c4c(OC)ncnc4C4CC4)nc32)cc1` [Example 184], for which the solubility at 24 h in series [1] (setting [5]) and in series [1] (setting [6]) was ≥ 10 µM throughout. Moreover, the results for the half-life at 1 μM in series [2] and in series [4] were > 25 min and < 25 min, respectively. Moreover, the pIC50 (in series [3]; at USP1/UAF1 enzyme) was > 7.00 throughout.
As for `CCn1cc(C(F)(F)F)nc1-c1ccc([C@@H](C)n2c(=O)ccn3nc(-c4c(OC)ncnc4C4CC4)cc23)cc1` [Example 335, (R)-2-(4-cyclopropyl-6-methoxypyrimidin-5-yl)-4-(1-(4-(1-ethyl-4-(trifluoromethyl)-1H-imidazol-2-yl)phenyl)ethyl)pyrazolo[1,5-a]pyrimidin-5(4H)-one], the solubility (commonly the concentration that dissolves in the medium under given conditions) at 24 h in series [1] (setting [5]) was ≥ 10 µM; in series [1] (setting [6]), < 10 µM. Also, the half-life at 1 μM in series [2] and in series [4] was > 25 min throughout. The pIC50 (in series [3]; on USP1/UAF1 enzyme) was > 7.00 in each case.
As for `CCn1cc(C(F)(F)F)nc1-c1ccc(CN2C(=O)CCn3nc(-c4c(OC)ncnc4C4CC4)nc32)cc1` [Example 171], the solubility at 24 h in series [1] (setting [5]) and in series [1] (setting [6]) was ≥ 10 µM each time. The half-life at 1 μM in series [2] and in series [4] was > 25 min each time. For the same molecule, the pIC50 (in series [3]; at USP1/UAF1 enzyme) was > 7.00 in each case.
As for `COc1cc(CN2C(=O)CCn3nc(-c4c(OC)ncnc4C(C)C)nc32)ccc1-c1nc(C(F)(F)F)cn1C(C)C` [Example 46], the solubility at 24 h in series [1] (setting [5]) and in series [1] (setting [6]) was ≥ 10 µM in each case. The half-life at 1 μM in series [2] and in series [4] was > 25 min each time. Also, the pIC50 (in series [3]; on USP1/UAF1 enzyme) was 6.30 to 7.00 in each case.
As for `CCn1cc(C(F)(F)F)nc1-c1ccc(CN2C(=O)C(C)Cn3nc(-c4c(Cl)cnn4C(C)C)nc32)cc1F` (stereo not drawn) [Example 350, 2-(4-chloro-1-isopropyl-1H-pyrazol-5-yl)-4-(4-(1-ethyl-4-(trifluoromethyl)-1H-imidazol-2-yl)-3-fluorobenzyl)-6-methyl-6,7-dihydro-[1,2,4]triazolo[1,5-a]pyrimidin-5(4H)-one], the solubility at 24 h in series [1] (setting [5]) and in series [1] (setting [6]) was < 10 µM in each case. Also, the half-life at 1 μM in series [2] and in series [4] was > 25 min in each case. Further, the pIC50 (in series [3]; on USP1/UAF1 enzyme) was > 7.00 in each case.
Take `CCn1cc(C(F)(F)F)nc1-c1ccc(CN2C(=O)CCn3nc(-c4c(OC(F)F)ncnc4C4CC4)nc32)cc1F` [Example 370, 2-(4-cyclopropyl-6-(difluoromethoxy)pyrimidin-5-yl)-4-(4-(1-ethyl-4-(trifluoromethyl)-1H-imidazol-2-yl)-3-fluorobenzyl)-6,7-dihydro-[1,2,4]triazolo[1,5-a]pyrimidin-5(4H)-one]: the solubility at 24 h in series [1] (setting [5]) and in series [1] (setting [6]) was < 10 µM throughout. In addition, the half-life at 1 μM in series [2] and in series [4] was > 25 min each time. Besides, the pIC50 (in series [3]; at USP1/UAF1 enzyme) was > 7.00 in each case.
In the case of `COc1ncnc(C2CC2)c1-c1cc2n(n1)C(C)CCN2Cc1ccc(-c2nc(C(F)(F)F)cn2C)cc1` (racemic) [Example 51, 2-(4-cyclopropyl-6-methoxypyrimidin-5-yl)-7-methyl-4-(4-(1-methyl-4-(trifluoromethyl)-1H-imidazol-2-yl)benzyl)-4,5,6,7-tetrahydropyrazolo[1,5-α]pyrimidine], the solubility at 24 h in series [1] (setting [5]) was ≥ 10 µM; in series [1] (setting [6]) it was < 10 µM. The half-life at 1 μM in series [2] and in series [4] was < 25 min each time. In addition, the pIC50 (in series [3]; at USP1/UAF1 enzyme) was > 7.00 in each case.
On to `COc1ncnc(C2CC2)c1-c1cc2n(n1)CCC(=O)N2[C@@H](C)c1ccc(-c2nc(C(F)(F)F)cn2C(C)C)cc1` [Example 122], for which the solubility at 24 h in series [1] (setting [5]) was ≥ 10 µM; in series [1] (setting [6]) it was < 10 µM. In addition, the half-life at 1 μM in series [2] and in series [4] was > 25 min in each case. Further, the pIC50 was < 6.30 in series [3] and 6.30 to 7.00 at USP1/UAF1 enzyme.
Take `COc1ncnc(C2CC2)c1-c1cc2n(n1)CCC(=O)N2Cc1ccc(-n2nc(C(F)(F)F)cc2OC)c(F)c1` [Example 7, 2-(4-cyclopropyl-6-methoxypyrimidin-5-yl)-4-(3-fluoro-4-(5-methoxy-3-(trifluoromethyl)-1H-pyrazol-1-yl)benzyl)-6,7-dihydropyrazolo[1,5-a]pyrimidin-5(4H)-one]: the solubility at 24 h in series [1] (setting [5]) and in series [1] (setting [6]) was < 10 µM each time. Further, the half-life at 1 μM in series [2] and in series [4] was > 25 min throughout. Moreover, the negative logarithm of the IC50 (pIC50) in series [3] is 6.30 to 7.00; on USP1/UAF1 enzyme it was > 7.00.
For `CCn1cc(C(F)(F)F)nc1-c1ccc(NC2CCCn3nc(-c4c(OC)ncnc4C4CC4)cc32)cc1` (stereo not drawn) [Example 240, 2-(4-cyclopropyl-6-methoxypyrimidin-5-yl)-N-(4-(1-ethyl-4-(trifluoromethyl)-1H-imidazol-2-yl)phenyl)-4,5,6,7-tetrahydropyrazolo[1,5-a]pyridin-4-amine], the solubility at 24 h is ≥ 10 µM in series [1] (setting [5]) and < 10 µM in series [1] (setting [6]). Further, the half-life at 1 μM in series [2] and in series [4] was > 25 min throughout. The negative-log IC50 (pIC50) (in series [3]; on USP1/UAF1 enzyme) was > 7.00 in each case.
